Test results taken from ChEMBL document CHEMBL1133444, “N-cycloalkyl derivatives of adenosine and 1-deazaadenosine as agonists and partial agonists of the A(1) adenosine receptor” (J Med Chem, 2000).
pEC50, pKi: −log10 of the molar value.

Molecular target: T1, Adenosine receptor A1 (Rattus norvegicus, UniProt P25099)
T1 sequence (P25099 whole entry): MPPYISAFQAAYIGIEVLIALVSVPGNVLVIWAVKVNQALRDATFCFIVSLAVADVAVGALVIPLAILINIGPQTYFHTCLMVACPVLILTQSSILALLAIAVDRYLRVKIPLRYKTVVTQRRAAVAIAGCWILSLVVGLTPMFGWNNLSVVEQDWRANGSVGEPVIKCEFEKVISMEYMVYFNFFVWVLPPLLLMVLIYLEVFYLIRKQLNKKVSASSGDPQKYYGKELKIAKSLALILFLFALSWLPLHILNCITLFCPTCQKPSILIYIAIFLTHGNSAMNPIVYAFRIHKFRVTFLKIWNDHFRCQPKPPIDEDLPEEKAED
Test: Binding affinity for adenosine A1 receptor was assayed by displacement of [3H]DPCPX from rat cortical membranes.
Type: cell membranes, Membrane
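Throughout, for KH: displacement of [3H]DPCPX binding from rat cortical membranes in the absence of GTP, KH giving affinity for the high-affinity receptor state.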
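Throughout, for KL: displacement of [3H]DPCPX from rat cortical membranes, assayed without GTP, with KL giving affinity for the low-affinity state of the receptor.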

| SMILES | pKi |
| --- | --- |
| OC[C@H]1O[C@@H](n2cnc3c(NC4CCCCCCC4)ncnc32)[C@H](O)[C@@H]1O | 7.27 |
| OC[C@H]1O[C@@H](n2cnc3c(NC4CC4)ncnc32)[C@H](O)[C@@H]1O | 7.57 |
| OC[C@H]1O[C@@H](n2cnc3c(NC4CCCC4)cc(Cl)nc32)[C@H](O)[C@@H]1O | 7.31 |
| OC[C@H]1OC(n2cnc3c(NC4CCCCCCC4)ccnc32)[C@H](O)[C@@H]1O (some centres not stated) | 6.27 |

Molecular target: T1, Adenosine receptor A1
Test: not given

| SMILES | pKi |
| --- | --- |
| OC[C@H]1O[C@@H](n2cnc3c(NC4CCCCC4)ncnc32)C[C@@H]1O | 4.78 |
| OC[C@H]1O[C@@H](n2cnc3c(NC4CCCCC4)nc(Cl)nc32)C[C@@H]1O | 5.59 |
| OC[C@H]1O[C@@H](n2cnc3c(NC4CCCCCC4)nc(Cl)nc32)C[C@@H]1O | 5.96 |
| OC[C@H]1O[C@@H](n2cnc3c(NC4CCC4)nc(Cl)nc32)C[C@@H]1O | 5.44 |
| OC[C@H]1O[C@@H](n2cnc3c(NC4CCCC4)ncnc32)C[C@@H]1O | 4.99 |
| OC[C@H]1O[C@@H](n2cnc3c(NC4CCCC4)nc(Cl)nc32)C[C@@H]1O | 5.88 |
| OC[C@H]1O[C@@H](n2cnc3c(NC4CCCCCC4)ncnc32)C[C@@H]1O | 4.69 |
| OC[C@H]1O[C@@H](n2cnc3c(NC4CCCCCCC4)ncnc32)C[C@@H]1O | 5.03 |
| OC[C@H]1O[C@@H](n2cnc3c(NC4CCC4)ncnc32)C[C@@H]1O | 4.63 |
| OC[C@H]1O[C@@H](n2cnc3c(NC4CCCCCCC4)nc(Cl)nc32)C[C@@H]1O | 5.85 |

Molecular target: T1, Adenosine receptor A1
Test: Binding affinity for adenosine A1 receptor, was assessed from the ability to displace [3H]-DPCPX (without GTP) from rat cortical membranes.

| SMILES | pKi |
| --- | --- |
| OC[C@H]1O[C@@H](n2cnc3c(NC4CCCCC4)ncnc32)C[C@@H]1O | 6.39 |
| OC[C@H]1O[C@@H](n2cnc3c(NC4CCCCC4)nc(Cl)nc32)C[C@@H]1O | 6.30 |
| OC[C@H]1O[C@@H](n2cnc3c(NC4CCCCCC4)nc(Cl)nc32)C[C@@H]1O | 6.43 |
| OC[C@H]1O[C@@H](n2cnc3c(NC4CCC4)nc(Cl)nc32)C[C@@H]1O | 6.61 |
| OC[C@H]1O[C@@H](n2cnc3c(NC4CCCC4)ncnc32)C[C@@H]1O | 6.67 |
| OC[C@H]1O[C@@H](n2cnc3c(NC4CCCC4)nc(Cl)nc32)C[C@@H]1O | 6.81 |
| OC[C@H]1O[C@@H](n2cnc3c(NC4CCCCCC4)ncnc32)C[C@@H]1O | 6.11 |
| OC[C@H]1O[C@@H](n2cnc3c(NC4CCCCCCC4)ncnc32)C[C@@H]1O | 6.23 |
| OC[C@H]1O[C@@H](n2cnc3c(NC4CCC4)ncnc32)C[C@@H]1O | 6.28 |
| OC[C@H]1O[C@@H](n2cnc3c(NC4CCCCCCC4)nc(Cl)nc32)C[C@@H]1O | 6.18 |

Molecular target: T1, Adenosine receptor A1
Test: Stimulation of [35S]GTP-gamma-S, binding to rat brain membranes by adenosine A1 receptor activation
Type: functional, cell membranes, Membrane

| SMILES | pEC50 |
| --- | --- |
| OC[C@H]1O[C@@H](n2cnc3c(NC4CCCCC4)ncnc32)C[C@@H]1O | 5.02 |
| OC[C@H]1O[C@@H](n2cnc3c(NC4CC4)nc(Cl)nc32)[C@H](O)[C@@H]1O | 7.24 |
| OC[C@H]1O[C@@H](n2cnc3c(NC4CCC4)nc(Cl)nc32)C[C@@H]1O | 5.43 |
| OC[C@H]1O[C@@H](n2cnc3c(NC4CCCC4)ncnc32)C[C@@H]1O | 5.24 |
| OC[C@H]1O[C@@H](n2cnc3c(NC4CCCC4)nc(Cl)nc32)C[C@@H]1O | 5.81 |
| OC[C@H]1O[C@@H](n2cnc3c(NC4CCCCCC4)ncnc32)C[C@@H]1O | 4.86 |
| OC[C@H]1O[C@@H](n2cnc3c(NC4CCC4)ncnc32)C[C@@H]1O | 5.29 |
| OC[C@H]1O[C@@H](n2cnc3c(NC4CC4)ncnc32)[C@H](O)[C@@H]1O | 6.15 |
| OC[C@H]1O[C@@H](n2cnc3c(NC4CCCC4)cc(Cl)nc32)[C@H](O)[C@@H]1O | 6.39 |

Test system: not listed separately
Test: % of the receptors in the high affinity state

| SMILES | RHA |
| --- | --- |
| OC[C@H]1O[C@@H](n2cnc3c(NC4CCCCCCC4)ncnc32)C[C@@H]1O | 45.9% |
| OC[C@H]1O[C@@H](n2cnc3c(NC4CCCCCCC4)nc(Cl)nc32)C[C@@H]1O | 14.5% |

Molecular target: T2, Adenosine receptor A1 (Rattus norvegicus) (UniProt P25099)
T2 sequence (whole entry): T1 sequence (P25099 whole entry)
Test: not given

| SMILES | KH |
| --- | --- |
| OC[C@H]1O[C@@H](n2cnc3c(NC4CCCCC4)ncnc32)C[C@@H]1O | 92.5 nM |
| OC[C@H]1O[C@@H](n2cnc3c(NC4CCCCC4)nc(Cl)nc32)C[C@@H]1O | 61.7 nM |
| OC[C@H]1O[C@@H](n2cnc3c(NC4CCCCCC4)nc(Cl)nc32)C[C@@H]1O | 30.7 nM |
| OC[C@H]1O[C@@H](n2cnc3c(NC4CCC4)nc(Cl)nc32)C[C@@H]1O | 33.3 nM |
| OC[C@H]1O[C@@H](n2cnc3c(NC4CCCC4)ncnc32)C[C@@H]1O | 39.3 nM |
| OC[C@H]1O[C@@H](n2cnc3c(NC4CCCC4)nc(Cl)nc32)C[C@@H]1O | 18.5 nM |
| OC[C@H]1O[C@@H](n2cnc3c(NC4CCCCCC4)ncnc32)C[C@@H]1O | 124 nM |
| OC[C@H]1O[C@@H](n2cnc3c(NC4CCCCCCC4)ncnc32)C[C@@H]1O | 84.9 nM |
| OC[C@H]1O[C@@H](n2cnc3c(NC4CCC4)ncnc32)C[C@@H]1O | 121 nM |
| OC[C@H]1O[C@@H](n2cnc3c(NC4CCCCCCC4)nc(Cl)nc32)C[C@@H]1O | 23.6 nM |

Molecular target: T2, Adenosine receptor A1 (Rattus norvegicus)
Test: not given
Remark: another data set of the same source

| SMILES | KL |
| --- | --- |
| OC[C@H]1O[C@@H](n2cnc3c(NC4CCCCC4)ncnc32)C[C@@H]1O | 7330 nM |
| OC[C@H]1O[C@@H](n2cnc3c(NC4CCCCC4)nc(Cl)nc32)C[C@@H]1O | 1590 nM |
| OC[C@H]1O[C@@H](n2cnc3c(NC4CCCCCC4)nc(Cl)nc32)C[C@@H]1O | 752 nM |
| OC[C@H]1O[C@@H](n2cnc3c(NC4CCC4)nc(Cl)nc32)C[C@@H]1O | 1920 nM |
| OC[C@H]1O[C@@H](n2cnc3c(NC4CCCC4)ncnc32)C[C@@H]1O | 3520 nM |
| OC[C@H]1O[C@@H](n2cnc3c(NC4CCCC4)nc(Cl)nc32)C[C@@H]1O | 800 nM |
| OC[C@H]1O[C@@H](n2cnc3c(NC4CCCCCC4)ncnc32)C[C@@H]1O | 7410 nM |
| OC[C@H]1O[C@@H](n2cnc3c(NC4CCCCCCC4)ncnc32)C[C@@H]1O | 4190 nM |
| OC[C@H]1O[C@@H](n2cnc3c(NC4CCC4)ncnc32)C[C@@H]1O | 8300 nM |
| OC[C@H]1O[C@@H](n2cnc3c(NC4CCCCCCC4)nc(Cl)nc32)C[C@@H]1O | 1020 nM |

Molecular target: T2, Adenosine receptor A1 (Rattus norvegicus)
Test: not given
Remark: another data set of the same source

| SMILES | RIA |
| --- | --- |
| OC[C@H]1O[C@@H](n2cnc3c(NC4CCCCC4)ncnc32)C[C@@H]1O | 40.1 |
| OC[C@H]1O[C@@H](n2cnc3c(NC4CCCCC4)nc(Cl)nc32)C[C@@H]1O | 0 |
| OC[C@H]1O[C@@H](n2cnc3c(NC4CCCCCC4)nc(Cl)nc32)C[C@@H]1O | 0 |
| OC[C@H]1O[C@@H](n2cnc3c(NC4CC4)ncnc32)C[C@@H]1O | 0 |
| OC[C@H]1O[C@@H](n2cnc3c(NC4CCC4)nc(Cl)nc32)C[C@@H]1O | 19.5 |
| OC[C@H]1O[C@@H](n2cnc3c(NC4CCCC4)ncnc32)C[C@@H]1O | 42.1 |
| OC[C@H]1O[C@@H](n2cnc3c(NC4CCCC4)nc(Cl)nc32)C[C@@H]1O | 8.3 |
| OC[C@H]1O[C@@H](n2cnc3c(NC4CCCCCC4)ncnc32)C[C@@H]1O | 24.9 |
| OC[C@H]1O[C@@H](n2cnc3c(NC4CCCCCCC4)ncnc32)C[C@@H]1O | 0 |
| OC[C@H]1O[C@@H](n2cnc3c(NC4CCC4)ncnc32)C[C@@H]1O | 33.8 |
| OC[C@H]1O[C@@H](n2cnc3c(NC4CCCCCCC4)nc(Cl)nc32)C[C@@H]1O | 0 |

Molecular target: Adenosine receptor A2a (Rattus norvegicus, UniProt P30543)
Sequence (P30543 whole entry): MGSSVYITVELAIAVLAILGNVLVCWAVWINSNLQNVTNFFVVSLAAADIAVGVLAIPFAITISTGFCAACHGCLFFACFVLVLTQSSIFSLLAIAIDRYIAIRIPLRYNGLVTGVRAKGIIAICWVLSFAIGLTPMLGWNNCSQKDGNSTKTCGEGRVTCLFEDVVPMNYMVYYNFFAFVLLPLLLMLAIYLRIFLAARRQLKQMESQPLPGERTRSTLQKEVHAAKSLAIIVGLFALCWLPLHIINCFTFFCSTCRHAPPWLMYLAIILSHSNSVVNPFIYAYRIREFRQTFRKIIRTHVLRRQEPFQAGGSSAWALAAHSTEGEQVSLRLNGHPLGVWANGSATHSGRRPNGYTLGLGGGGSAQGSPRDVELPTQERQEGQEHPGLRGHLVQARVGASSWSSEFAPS
Test: Binding affinity for adenosine A2A receptor was determined by displacement of [3H]CGS 21680 from rat striatal membranes.

| SMILES | pKi |
| --- | --- |
| OC[C@H]1O[C@@H](n2cnc3c(NC4CC4)nc(Cl)nc32)[C@H](O)[C@@H]1O | 5.69 |
| OC[C@H]1O[C@@H](n2cnc3c(NC4CCCC4)ncnc32)[C@H](O)[C@@H]1O [N6-CYCLOPENTYLADENOSINE] | 5.47 |
| OC[C@H]1O[C@@H](n2cnc3c(NC4CCCCCCC4)ncnc32)[C@H](O)[C@@H]1O | 5.38 |
| OC[C@H]1O[C@@H](n2cnc3c(NC4CC4)ncnc32)[C@H](O)[C@@H]1O | 6.29 |
| OC[C@H]1O[C@@H](n2cnc3c(NC4CCCC4)cc(Cl)nc32)[C@H](O)[C@@H]1O | 5.55 |
| OC[C@H]1OC(n2cnc3c(NC4CCCCCCC4)ccnc32)[C@H](O)[C@@H]1O (some centres not stated) | 4.86 |
